Source: article PMC11083565, “Computational Design of Novel Cyclic Peptides Endowed with Autophagy-Inhibiting Activity on Cancer Cell Lines” (International Journal of Molecular Sciences, 2024)
Like-named read-outs stand apart in the source and are kept apart here. Where a SMILES comes first, the peptide text is derived from it. Bridges are numbered along the chain shown (N, C = ends). Where no end group is shown, it is not given here. [ ]: non-standard residue; d: D form. The star is where a group is joined. d(pT) = C[C@H](OP(=O)(O)O)[C@@H](N)C(=O)O; pY = N[C@@H](Cc1ccc(OP(=O)(O)O)cc1)C(=O)O; OBn = c1ccc(CO*)cc1; Bn = c1ccc(C*)cc1

Assays:
[1] = test system: SQSTM1/p62 expression in PC3 cells; assay type: cell-based, human
[2] = test system: LC3-I and LC3-II expression in PC3 cells; experiment: Western blot of LC3-I / LC3-II in PC3 cells; assay type: cell-based, human
[3] = test system: PNT2 cells
[4] = test system: MCF-7 cells; conditions: 96 h, 5 µM
[5] = test system: PC3 cells
[6] = test system: DU145 cells; assay type: cell-based, human
[7] = target: human recombinant His-tagged LC3B protein (Homo sapiens, UniProt Q9GZQ8); assay type: binding
[8] = test system: A549 cells; conditions: 96 h, 5 µM
[9] = test system: bladder cancer; design: method as in PMID 31574376; conditions: combination with autophagy inhibitors; ref [27]; cited from earlier work

In the case of `CC(=O)N[C@@H](CC(=O)O)C(=O)N[C@@H](CCC(=O)OCc1ccccc1)C(=O)N[C@@H](C(=O)N[C@@H](CCC(=O)O)C(=O)N[C@H](Cc1ccccc1)C(=O)N[C@@H](C(=O)N[C@@H](Cc1ccc(OP(=O)(O)O)cc1)C(=O)N[C@@H](CC(C)C)C(=O)N[C@@H](CCC(=O)O)C(=O)N[C@@H]1CSSC[C@H](C(N)=O)NC(=O)[C@H](CC(=O)O)NC1=O)[C@H](C)OP(=O)(O)O)[C@H](C)OCc1ccccc1` [Pep6] (Ac-DE(OBn)[dT](Bn)E[dF][d(pT)][pY]LE[dC]D[dC]-NH2; disulfide 10-12), the p62 expression [1] is reported as “significantly increased”, the “LC3-I and LC3-II expression” value [2] is reported as “significantly reduced” and the LC3-II/LC3-I ratio [2] is reported as “without changing the LC3-II/LC-I ratio”. The “LC3-II/LC3-I ratio with trehalose” value [2] was “able to decrease the LC3-II/LC3- ratio compared to trehalose alone”, the “effect on PNT2 cells” value [3] was “ineffective” and the “cell viability MCF-7” value [4] was 80.7%. The “duration of antitumoral effect” value [5] was “more stable over time than Pep3”, the “effect on PC3 cell viability” value [5] was “reduction in cell viability” and the “relative efficacy on PC3 cell viability” value [5] was “greater efficacy of Pep6 compared to LIR2-RavZ at all doses used”. The “effect on DU145 cell viability” value [6] was “ineffective”, the “Kd compared with LIR2-RavZ” value [7] was “about three times lower” and the “cell viability A549” value [8] was 76.7%.
With `Cn1cnc(N)c2ncnc1-2` [Pep 3-MA, 3-methyladenine, reference compound] the “LC3-I and LC3-II expression” value ([2]; PC3, 3-MA 1 mM, compared with Pep3 effect) was “The same effect on LC3-I and LC3-II expression”.
For `CNC(=O)c1ccc(N2C(=S)N(c3ccc(C#N)c(C(F)(F)F)c3)C(=O)C2(C)C)cc1F` [enzalutamide], the “apoptosis of bladder cancer” value [9] is given as “effectively induced bladder cancer apoptosis in vitro and in vivo”.
For “DIDEFDLLEGDE [LIR2-RavZ, reference compound]”, the “cell viability MCF-7” value [4] was 85.4% and the “cell viability A549” value [8] was 81.1%.
